Where two headings read alike, the source gives them in different places.
Tests used:
EGFR^L858R/T790M/C797S = EGFR^L858R/T790M/C797S (Homo sapiens, UniProt P00533, C797S/L858R/T790M); assay: HTRF KinEASE-TK in vitro kinase assay, KINASE LTC; assay type: biochemical
Excerpt: (§1) The biological activity of compounds described herein were studied according to standard methods known in the art. Methods were used to study inhibition of EGFR, including mutant forms of EGFR comprising L858R, T790M, C797S, and/or Del19 mutations, or any combination thereof (e.g., L858R single, double, or triple mutants). Exemplary, non-limiting methods are described herein.
(§2) Assays using an in vitro kinase assay kit (HTRF KinEASE-TK kit) were used to study the inhibitory activity of compounds described herein with respect to EGFR mutants such as (1) EGFRL858R, (2) EGFR^L858R/T790M, and (3) EGFR^L858R/T790M/C797S.

EGFR^L858R/T790M = EGFR^L858R/T790M (Homo sapiens, UniProt P00533, L858R/T790M); assay: HTRF KinEASE-TK in vitro kinase assay, KINASE LT; assay type: biochemical
Sequence of EGFR^L858R/T790M (P00533 25-1210 T790M/L858R): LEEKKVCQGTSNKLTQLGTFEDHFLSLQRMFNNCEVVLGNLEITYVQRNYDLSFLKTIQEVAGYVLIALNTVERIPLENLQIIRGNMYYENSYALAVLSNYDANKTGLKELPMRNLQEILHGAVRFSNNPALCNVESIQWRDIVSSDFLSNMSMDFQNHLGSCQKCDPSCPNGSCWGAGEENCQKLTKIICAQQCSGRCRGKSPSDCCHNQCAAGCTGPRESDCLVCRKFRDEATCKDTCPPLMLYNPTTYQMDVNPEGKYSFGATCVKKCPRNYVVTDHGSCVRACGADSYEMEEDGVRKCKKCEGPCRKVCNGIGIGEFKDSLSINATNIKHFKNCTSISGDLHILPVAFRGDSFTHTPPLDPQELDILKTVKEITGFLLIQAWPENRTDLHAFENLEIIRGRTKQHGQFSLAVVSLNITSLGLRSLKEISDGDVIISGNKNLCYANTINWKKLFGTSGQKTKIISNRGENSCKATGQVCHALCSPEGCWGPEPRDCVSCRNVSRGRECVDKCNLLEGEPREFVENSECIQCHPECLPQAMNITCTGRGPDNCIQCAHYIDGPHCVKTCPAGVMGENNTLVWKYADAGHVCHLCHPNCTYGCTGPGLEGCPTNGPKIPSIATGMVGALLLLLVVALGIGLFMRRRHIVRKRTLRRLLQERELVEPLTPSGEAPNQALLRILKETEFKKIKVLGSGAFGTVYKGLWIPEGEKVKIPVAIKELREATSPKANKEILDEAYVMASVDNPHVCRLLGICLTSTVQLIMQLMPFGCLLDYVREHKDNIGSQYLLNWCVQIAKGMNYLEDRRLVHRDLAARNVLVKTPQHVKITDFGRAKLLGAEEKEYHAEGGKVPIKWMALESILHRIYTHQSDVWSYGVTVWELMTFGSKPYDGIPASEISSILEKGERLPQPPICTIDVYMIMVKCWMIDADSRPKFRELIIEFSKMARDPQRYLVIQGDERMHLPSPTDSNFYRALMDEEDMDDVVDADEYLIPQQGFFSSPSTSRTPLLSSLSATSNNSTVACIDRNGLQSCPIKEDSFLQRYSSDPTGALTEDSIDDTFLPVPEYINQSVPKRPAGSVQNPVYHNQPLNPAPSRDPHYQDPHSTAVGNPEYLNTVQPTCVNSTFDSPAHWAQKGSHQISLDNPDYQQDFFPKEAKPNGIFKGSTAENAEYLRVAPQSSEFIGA
Excerpt: as §1, §2

EGFRL858R = EGFRL858R (Homo sapiens, UniProt P00533, L858R); assay: HTRF KinEASE-TK in vitro kinase assay, KINASE L; assay type: biochemical; settings: EGFR L858R kinase
Sequence of EGFRL858R (P00533 25-1210 L858R): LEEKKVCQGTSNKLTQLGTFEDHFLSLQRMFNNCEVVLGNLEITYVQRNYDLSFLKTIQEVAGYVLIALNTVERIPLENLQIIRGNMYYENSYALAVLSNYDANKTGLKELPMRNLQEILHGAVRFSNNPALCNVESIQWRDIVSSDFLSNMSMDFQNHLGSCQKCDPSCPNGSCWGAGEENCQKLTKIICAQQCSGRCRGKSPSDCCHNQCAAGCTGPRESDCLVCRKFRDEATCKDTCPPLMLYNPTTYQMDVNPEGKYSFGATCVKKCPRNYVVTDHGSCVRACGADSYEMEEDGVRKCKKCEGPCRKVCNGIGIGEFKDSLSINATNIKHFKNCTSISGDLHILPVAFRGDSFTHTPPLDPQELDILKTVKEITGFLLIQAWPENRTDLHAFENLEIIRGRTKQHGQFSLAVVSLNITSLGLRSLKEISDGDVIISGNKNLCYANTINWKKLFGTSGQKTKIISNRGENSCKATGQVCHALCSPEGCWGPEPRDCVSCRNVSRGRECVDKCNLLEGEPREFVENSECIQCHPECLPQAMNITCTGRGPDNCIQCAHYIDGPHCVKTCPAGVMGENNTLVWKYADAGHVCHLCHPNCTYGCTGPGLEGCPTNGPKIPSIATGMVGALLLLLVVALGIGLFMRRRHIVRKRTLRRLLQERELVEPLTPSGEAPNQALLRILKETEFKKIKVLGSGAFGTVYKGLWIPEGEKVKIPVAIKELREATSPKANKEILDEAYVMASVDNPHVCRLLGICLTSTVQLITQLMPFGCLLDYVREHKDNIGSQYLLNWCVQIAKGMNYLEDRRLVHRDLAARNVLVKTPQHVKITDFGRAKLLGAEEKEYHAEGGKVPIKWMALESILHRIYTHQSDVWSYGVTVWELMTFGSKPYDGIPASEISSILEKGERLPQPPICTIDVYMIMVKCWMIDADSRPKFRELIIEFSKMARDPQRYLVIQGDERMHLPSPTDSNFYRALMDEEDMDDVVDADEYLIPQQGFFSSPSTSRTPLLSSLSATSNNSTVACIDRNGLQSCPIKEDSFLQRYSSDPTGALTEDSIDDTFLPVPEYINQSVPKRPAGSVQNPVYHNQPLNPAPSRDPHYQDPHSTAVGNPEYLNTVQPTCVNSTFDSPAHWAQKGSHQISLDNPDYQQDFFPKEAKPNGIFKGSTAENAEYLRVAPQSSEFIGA
Excerpt: as §1, §2

[1] = target: Ba/F3 EGFR-Del19/T790M/C797S (Homo sapiens, UniProt P00533, T790M/C797S, cells depend on it, form not given); assay: Ba/F3 viability assay (CellTiter-Glo), BAF3 DTC; assay type: cell-based; settings: Ba/F3 EGFR-Del19/T790M/C797S cell viability
Sequence of Ba/F3 EGFR-Del19/T790M/C797S (P00533 with tags, fused parts or gaps DEL746-750/T790M/C797S, form open): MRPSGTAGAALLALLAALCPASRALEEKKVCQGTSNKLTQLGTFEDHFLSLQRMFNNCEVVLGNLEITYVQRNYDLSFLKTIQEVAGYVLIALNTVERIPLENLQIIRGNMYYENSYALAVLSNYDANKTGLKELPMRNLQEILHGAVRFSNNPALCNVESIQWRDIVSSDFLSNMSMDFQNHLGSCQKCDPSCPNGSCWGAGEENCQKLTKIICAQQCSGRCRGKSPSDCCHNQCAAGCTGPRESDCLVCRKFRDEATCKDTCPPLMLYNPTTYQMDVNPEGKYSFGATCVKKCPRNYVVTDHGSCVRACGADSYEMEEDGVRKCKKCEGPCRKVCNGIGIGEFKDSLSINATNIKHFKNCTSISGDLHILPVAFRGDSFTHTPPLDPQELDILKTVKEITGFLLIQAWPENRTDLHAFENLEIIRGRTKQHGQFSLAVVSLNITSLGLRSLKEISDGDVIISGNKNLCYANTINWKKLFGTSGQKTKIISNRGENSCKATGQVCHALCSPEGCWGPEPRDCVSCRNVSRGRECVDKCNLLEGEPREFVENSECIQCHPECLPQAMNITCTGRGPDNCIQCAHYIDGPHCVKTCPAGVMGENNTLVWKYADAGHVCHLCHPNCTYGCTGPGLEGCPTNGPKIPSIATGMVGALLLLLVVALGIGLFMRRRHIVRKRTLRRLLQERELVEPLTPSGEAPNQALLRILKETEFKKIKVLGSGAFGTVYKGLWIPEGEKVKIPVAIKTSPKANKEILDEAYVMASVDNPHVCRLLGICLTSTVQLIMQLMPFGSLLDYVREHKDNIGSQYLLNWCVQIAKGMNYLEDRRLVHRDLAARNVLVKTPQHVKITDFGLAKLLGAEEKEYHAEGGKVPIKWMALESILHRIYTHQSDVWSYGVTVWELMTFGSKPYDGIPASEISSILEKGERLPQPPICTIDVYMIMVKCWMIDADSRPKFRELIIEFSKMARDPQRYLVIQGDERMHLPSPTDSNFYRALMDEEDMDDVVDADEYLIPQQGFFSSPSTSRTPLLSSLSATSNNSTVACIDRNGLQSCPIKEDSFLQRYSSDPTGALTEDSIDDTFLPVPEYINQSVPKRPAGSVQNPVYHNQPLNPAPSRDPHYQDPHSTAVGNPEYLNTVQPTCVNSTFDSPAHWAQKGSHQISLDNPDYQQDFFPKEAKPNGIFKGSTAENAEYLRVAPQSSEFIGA
Excerpt: as §1
(§3) Inhibition of cell proliferation was studied using Ba/F3 viability assays, including the Promega CellTiter-Glo cell viability assay. This assay was used to study the effect of compounds described herein in the following assays: (1) Ba/F3 EGFR-Del19/T790M; (2); Ba/F3 EGFR-Del19/C797S; and (3) Ba/F3 EGFR-Del19/T790M/C797S. P-EGFR Signaling Assays

Ba/F3 EGFR-Del19/T790M = Ba/F3 EGFR-Del19/T790M (Homo sapiens, UniProt P00533, T790M, cells depend on it, form not given); assay: Ba/F3 viability assay (CellTiter-Glo), BAF3 DT; assay type: cell-based; settings: Ba/F3 EGFR-Del19/T790M cell viability
Sequence of Ba/F3 EGFR-Del19/T790M (P00533 with tags, fused parts or gaps DEL746-750/T790M, form open): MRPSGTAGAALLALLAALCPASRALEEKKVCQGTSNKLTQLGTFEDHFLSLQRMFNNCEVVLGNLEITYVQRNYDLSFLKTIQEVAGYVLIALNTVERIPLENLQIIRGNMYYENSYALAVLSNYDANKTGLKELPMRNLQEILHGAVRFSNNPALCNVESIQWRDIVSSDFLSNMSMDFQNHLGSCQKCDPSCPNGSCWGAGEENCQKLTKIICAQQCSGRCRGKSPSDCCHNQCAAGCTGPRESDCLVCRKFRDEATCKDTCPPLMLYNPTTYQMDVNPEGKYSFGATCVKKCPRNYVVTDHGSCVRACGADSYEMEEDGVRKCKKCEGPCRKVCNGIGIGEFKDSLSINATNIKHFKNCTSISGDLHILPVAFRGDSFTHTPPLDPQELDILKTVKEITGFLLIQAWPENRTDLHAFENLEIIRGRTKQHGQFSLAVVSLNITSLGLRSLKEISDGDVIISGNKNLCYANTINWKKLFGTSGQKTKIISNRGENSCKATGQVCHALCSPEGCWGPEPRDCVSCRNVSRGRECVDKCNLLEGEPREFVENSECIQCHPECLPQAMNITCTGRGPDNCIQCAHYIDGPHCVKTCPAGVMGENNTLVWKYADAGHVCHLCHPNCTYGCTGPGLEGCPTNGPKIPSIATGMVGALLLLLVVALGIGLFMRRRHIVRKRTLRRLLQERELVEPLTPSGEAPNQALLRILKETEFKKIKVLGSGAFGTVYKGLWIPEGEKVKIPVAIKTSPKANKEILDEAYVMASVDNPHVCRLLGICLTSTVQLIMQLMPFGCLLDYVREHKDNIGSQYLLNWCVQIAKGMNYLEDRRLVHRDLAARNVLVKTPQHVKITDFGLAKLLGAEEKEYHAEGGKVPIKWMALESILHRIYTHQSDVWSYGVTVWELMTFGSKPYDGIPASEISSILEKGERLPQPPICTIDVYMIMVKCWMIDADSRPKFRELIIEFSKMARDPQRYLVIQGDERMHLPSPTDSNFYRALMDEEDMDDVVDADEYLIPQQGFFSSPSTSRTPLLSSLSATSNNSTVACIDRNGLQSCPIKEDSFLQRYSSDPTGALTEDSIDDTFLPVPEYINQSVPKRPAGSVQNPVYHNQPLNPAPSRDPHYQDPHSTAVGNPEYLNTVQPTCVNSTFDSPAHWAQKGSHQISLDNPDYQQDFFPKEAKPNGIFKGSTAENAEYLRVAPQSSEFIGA
Excerpt: as §1, §3

Ba/F3 EGFR-Del19/C797S = Ba/F3 EGFR-Del19/C797S (Homo sapiens, UniProt P00533, C797S, cells depend on it, form not given); assay: Ba/F3 viability assay (CellTiter-Glo), BAF3 DC; assay type: cell-based; settings: Ba/F3 EGFR-Del19/C797S cell viability
Excerpt: as §1, §3

[2] = amide bond, TBTU/Et3N, 20.0 °C
[3] = amide bond, TBTU, 20.0 °C

IC50 (EGFR^L858R/T790M/C797S) [nM] | IC50 (EGFR^L858R/T790M) [nM] | IC50 (EGFRL858R) [nM] | SMILES | GI50 [1] [nM] | GI50 (Ba/F3 EGFR-Del19/T790M) [nM] | GI50 (Ba/F3 EGFR-Del19/C797S) [nM] | ring closure, isolated yield ([2]; from Cc1cc(C(=O)O)cc(-c2cnn(C)c2N2CC(OCCn3c(N)nc4ccc(Br)cc43)C2)n1, 15-membered ring, DCM, 3.99 mM) [%] | ring closure, yield of all isomers ([3]; from Cc1cc(C(=O)O)cc(-c2cnn(C)c2N2CC(OCCn3c(N)nc4ccc(Br)cc43)C2)n1, TEA, DCM, 3.99 mM, 1.0 h) [%] | ring closure, isolated yield ([2]; from Cc1cc(C(=O)O)cc(-c2cnn(C)c2CCCO[C@@H](C)Cn2c(N)nc3ccc(Br)cc32)n1, 15-membered ring, DMF, 190.0 mM) [%] | ring closure, yield of all isomers ([3]; from Cc1cc(C(=O)O)cc(-c2cnn(C)c2CCCO[C@@H](C)Cn2c(N)nc3ccc(Br)cc32)n1, Et3N, DMF, 190.0 mM, 0.5 h) [%] | ring closure, isolated yield ([2]; from Cc1cc(C(=O)O)cc(-c2cnn(C)c2CCC[C@@H](C)Cn2c(N)nc3ccc(Br)cc32)n1, 14-membered ring, DCM, 5.05 mM) [%] | ring closure, isolated yield ([2]; from Cc1cc(C(=O)O)cc(-c2cnn(C)c2CCCC[C@@H](C)Cn2c(N)nc3ccc(Br)cc32)n1, 15-membered ring, DCM, 2.75 mM) [%] | ring closure, yield of all isomers ([3]; from Cc1cc(C(=O)O)cc(-c2cnn(C)c2CCCC[C@@H](C)Cn2c(N)nc3ccc(Br)cc32)n1, TEA, DCM, 2.75 mM, 2.0 h) [%]
< 50 | < 50 | < 50 | Cc1cc2cc(n1)-c1cnn(C)c1CCCCCCN1/C(=N/C2=O)Nc2ccc(CN3CCN(C)CC3)cc21 [(64)] | < 50 | < 50 | 50 to 100 | – | – | – | – | – | – | –
– | – | – | Cc1cc2cc(n1)-c1cnn(C)c1N1CC(C1)OCCN1/C(=N/C2=O)Nc2ccc(Br)cc21 | – | – | – | 60.3 | 60.3 | – | – | – | – | –
< 50 | < 50 | < 50 | Cc1cc2cc(n1)-c1cnn(C)c1CCCCCCN1/C(=N/C2=O)Nc2ccc(N(C)CCN(C)C)cc21 [(40)] | < 50 | < 50 | 100 to 1000 | – | – | – | – | – | – | –
< 50 | < 50 | < 50 | Cc1cc2cc(n1)-c1cnn(C)c1CCCCCN1/C(=N/C2=O)Nc2ccc(CN3CCN(C)CC3)cc21 [(69)] | < 50 | < 50 | < 50 | – | – | – | – | – | – | –
< 50 | < 50 | < 50 | Cc1cc2cc(n1)-c1cnn(C)c1CCC[C@@H](C)CN1/C(=N/C2=O)Nc2ccc(N3C[C@@H](C)N(C)[C@@H](C)C3)cc21 [(11)] | < 50 | < 50 | < 50 | – | – | – | – | – | – | –
< 50 | < 50 | 100 to 1000 | Cc1cc2cc(n1)-c1cnn(C)c1-c1cccc(c1)C(C)CN1/C(=N/C2=O)Nc2ccc(C(=O)N3CCN(C)CC3)cc21 (stereo not shown) [(57)] | 100 to 1000 | ≥ 1000 | 100 to 1000 | – | – | – | – | – | – | –
< 50 | < 50 | < 50 | Cc1cc2cc(n1)-c1cnn(C)c1CCC[C@@H](C)CN1/C(=N/C2=O)Nc2ccc(N3CCC(N4CC[C@H](N(C)C)C4)CC3)cc21 [(4)] | < 50 | < 50 | < 50 | – | – | – | – | – | – | –
< 50 | < 50 | < 50 | COc1ccncc1-c1ccc2c(c1)N1C[C@H](C)CCCc3c(cnn3C)-c3cc(cc(C)n3)C(=O)/N=C/1N2 [(9)] | < 50 | < 50 | < 50 | – | – | – | – | – | – | –
< 50 | < 50 | 100 to 1000 | Cc1cc2cc(n1)-c1cnn(C)c1CCCO[C@@H](C)CN1/C(=N/C2=O)Nc2ccc(CN3CCN(C)CC3)cc21 [Compound (55), (11S,21E)-5,11,26-trimethyl-16-[(4-methylpiperazin-1-yl)methyl]-10-oxa-4,5,13,20,22,27-hexazapentacyclo[22.3.1.02,6.013,21.014,19]octacosa-1(28),2(6),3,14(19),15,17,21,24,26-nonaen-23-one] | 50 to 100 | 100 to 1000 | 100 to 1000 | – | – | – | – | – | – | –
– | – | – | Cc1cc2cc(n1)-c1cnn(C)c1CCCO[C@@H](C)CN1/C(=N/C2=O)Nc2ccc(Br)cc21 | – | – | – | – | – | 28.8 | 28.8 | – | – | –
< 50 | < 50 | 100 to 1000 | Cc1cc2cc(n1)-c1cnn(C)c1-c1cccc(c1)CN1/C(=N/C2=O)Nc2ccc(CN3CCN(C)CC3)cc21 [(61)] | 100 to 1000 | 100 to 1000 | 100 to 1000 | – | – | – | – | – | – | –
– | – | – | Cc1cc2cc(n1)-c1cnn(C)c1CCC[C@@H](C)CN1/C(=N/C2=O)Nc2ccc(Br)cc21 | – | – | – | – | – | – | – | 60.5 | – | –
100 to 1000 | 100 to 1000 | < 50 | Cc1cc2cc(n1)-c1cnn(C)c1CCCCCCN1/C(=N/C2=O)Nc2ccc(CN3CCOCC3)cc21 [(62)] | 100 to 1000 | ≥ 1000 | 50 to 100 | – | – | – | – | – | – | –
< 50 | < 50 | < 50 | Cc1cc2cc(n1)-c1cnn(C)c1CCC[C@@H](C)CN1/C(=N/C2=O)Nc2ccc(N3CCC(N4CCOCC4)CC3)cc21 [(24)] | < 50 | < 50 | < 50 | – | – | – | – | – | – | –
< 50 | < 50 | < 50 | Cc1cc2cc(n1)-c1cnn(C)c1CCC[C@@H](C)CN1/C(=N/C2=O)Nc2ccc(N3CCN(C(C)C)CC3)cc21 [(28)] | < 50 | < 50 | < 50 | – | – | – | – | – | – | –
< 50 | < 50 | < 50 | Cc1ccc(-c2ccc3c(c2)N2C[C@H](C)CCCc4c(cnn4C)-c4cc(cc(C)n4)C(=O)/N=C/2N3)cn1 [Compound (10), (10R,20E)-5,10,25-trimethyl-15-(6-methyl-3-pyridyl)-4,5,12,19,21,26-hexazapentacyclo[21.3.1.02,6.012,20.013,18]heptacosa-1(27),2(6),3,13(18),14,16,20,23,25-nonaen-22-one] | < 50 | < 50 | < 50 | – | – | – | – | – | – | –
< 50 | < 50 | < 50 | Cc1cc2cc(n1)-c1cnn(C)c1CCC[C@@H](C)CN1/C(=N/C2=O)Nc2ccc(CN3CCN(C)CC3)cc21 [(35)] | < 50 | < 50 | < 50 | – | – | – | – | – | – | –
< 50 | < 50 | < 50 | COc1cc(N2CCN(C)CC2)cc2c1N/C1=N\C(=O)c3cc(C)nc(c3)-c3cnn(C)c3CCC[C@@H](C)CN12 [(3)] | < 50 | 50 to 100 | 100 to 1000 | – | – | – | – | – | – | –
< 50 | < 50 | < 50 | Cc1cc2cc(n1)-c1cnn(C)c1CCC[C@@H](C)CN1/C(=N/C2=O)Nc2ccc(OC3CCNCC3)cc21 [(15)] | < 50 | < 50 | < 50 | – | – | – | – | – | – | –
< 50 | < 50 | < 50 | Cc1cc2cc(n1)-c1cnn(C)c1CCC[C@@H](C)CN1/C(=N/C2=O)Nc2ccc(N(CCN(C)C)CC3COC3)cc21 [(18)] | < 50 | 50 to 100 | 100 to 1000 | – | – | – | – | – | – | –
– | – | – | Cc1cc2cc(n1)-c1cnn(C)c1CCCC[C@@H](C)Cn1c(nc3ccc(Br)cc31)NC2=O | – | – | – | – | – | – | – | – | 72.7 | 72.7
< 50 | < 50 | < 50 | Cc1cc2cc(n1)-c1cnn(C)c1CCCCCN1/C(=N/C2=O)Nc2ccc(CN3CCNCC3)cc21 [(46)] | < 50 | < 50 | < 50 | – | – | – | – | – | – | –
< 50 | < 50 | < 50 | Cc1cc2cc(n1)-c1cnn(C)c1CCC[C@@H](C)CN1/C(=N/C2=O)Nc2ccc(CN3CCN(CCF)CC3)cc21 [(25)] | < 50 | < 50 | < 50 | – | – | – | – | – | – | –
< 50 | < 50 | < 50 | Cc1cc2cc(n1)-c1cnn(C)c1CCC[C@@H](C)CN1/C(=N/C2=O)Nc2c(C)cc(N3CCN(C)CC3)cc21 [(2)] | < 50 | < 50 | 50 to 100 | – | – | – | – | – | – | –
